PubChem BioAssay (NCI)
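Dose response: 5 concentrations. Exposure: 48 h. Format: 96-well plates. Endpoint: linear interpolation; highest concentration if not reached. TGI is the concentration that stops growth completely.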

What was measured:
Assay in all cases: NCI-60 cell line screen, 48 h
SNB-75 CNS = test system: SNB-75 CNS
SK-MEL-5 melanoma = test system: SK-MEL-5 melanoma
COLO 205 colon = test system: COLO 205 colon
SNB-19 CNS = test system: SNB-19 CNS
LXFL 529 NSCLC = test system: LXFL 529 NSCLC
M14 melanoma = test system: M14 melanoma
HOP-62 NSCLC = test system: HOP-62 NSCLC
A549 NSCLC = test system: A549 NSCLC
NCI-H460 lung = test system: NCI-H460 lung
OVCAR-8 ovarian = test system: OVCAR-8 ovarian
NCI-H522 lung = test system: NCI-H522 lung
RXF 393 renal = test system: RXF 393 renal
UACC-257 melanoma = test system: UACC-257 melanoma
UO-31 renal = test system: UO-31 renal
SK-MEL-28 melanoma = test system: SK-MEL-28 melanoma
NCI-H226 lung = test system: NCI-H226 lung
OVCAR-5 ovarian = test system: OVCAR-5 ovarian
CAKI-1 renal = test system: CAKI-1 renal
KM20L2 colon = test system: KM20L2 colon
HCT-15 colon = test system: HCT-15 colon
IGROV1 ovarian = test system: IGROV1 ovarian
DLD-1 colon = test system: DLD-1 colon
RPMI-8226 leukemia = test system: RPMI-8226 leukemia
MOLT-4 leukemia = test system: MOLT-4 leukemia
OVCAR-3 ovarian = test system: OVCAR-3 ovarian
M19-MEL melanoma = test system: M19-MEL melanoma
HCC-2998 colon = test system: HCC-2998 colon
786-0 renal = test system: 786-0 renal
LOX IMVI melanoma = test system: LOX IMVI melanoma
SF-539 CNS = test system: SF-539 CNS
SN12C renal = test system: SN12C renal
K-562 leukemia = test system: K-562 leukemia
HL-60(TB) leukemia = test system: HL-60(TB) leukemia
MALME-3M melanoma = test system: MALME-3M melanoma
DMS 114 small cell lung = test system: DMS 114 small cell lung
DMS 273 small cell lung = test system: DMS 273 small cell lung
CCRF-CEM leukemia = test system: CCRF-CEM leukemia
XF 498 CNS = test system: XF 498 CNS
TK-10 renal = test system: TK-10 renal
SNB-78 CNS = test system: SNB-78 CNS
SR leukemia = test system: SR leukemia
SK-OV-3 ovarian = test system: SK-OV-3 ovarian
ACHN renal = test system: ACHN renal
HCT-116 colon = test system: HCT-116 colon
SF-295 CNS = test system: SF-295 CNS
A498 renal = test system: A498 renal
SW-620 colon = test system: SW-620 colon
NCI-H23 lung = test system: NCI-H23 lung
KM12 colon = test system: KM12 colon
OVCAR-4 ovarian = test system: OVCAR-4 ovarian
SF-268 CNS = test system: SF-268 CNS
HOP-18 NSCLC = test system: HOP-18 NSCLC
UACC-62 melanoma = test system: UACC-62 melanoma
HOP-92 NSCLC = test system: HOP-92 NSCLC
U251 CNS = test system: U251 CNS
EKVX NSCLC = test system: EKVX NSCLC
HT29 colon = test system: HT29 colon
SK-MEL-2 melanoma = test system: SK-MEL-2 melanoma

## CC1CC(c2ccc([N+](=O)[O-])cc2)=Nc2ccccc2S1 (stereo not given)
SNB-75 CNS
  TGI: > 100 µM
SK-MEL-5 melanoma
  TGI: 42.4 µM
COLO 205 colon
  TGI: 55.1 µM
SNB-19 CNS
  TGI: 39.5 µM
LXFL 529 NSCLC
  TGI: 26 µM
M14 melanoma
  TGI: 27.2 µM
HOP-62 NSCLC
  TGI: > 100 µM
A549 NSCLC
  TGI: 60.1 µM
NCI-H460 lung
  TGI: > 100 µM
OVCAR-8 ovarian
  TGI: > 100 µM
NCI-H522 lung
  TGI: 41.9 µM
RXF 393 renal
  TGI: 32 µM
UACC-257 melanoma
  TGI: 35.9 µM
UO-31 renal
  TGI: 24.9 µM
SK-MEL-28 melanoma
  TGI: 32.2 µM
NCI-H226 lung
  TGI: 46.6 µM
OVCAR-5 ovarian
  TGI: 76.1 µM
CAKI-1 renal
  TGI: 83.5 µM
KM20L2 colon
  TGI: 36.6 µM
HCT-15 colon
  TGI: 29.3 µM
IGROV1 ovarian
  TGI: 35.4 µM
DLD-1 colon
  TGI: 25.5 µM
RPMI-8226 leukemia
  TGI: 7.21 µM
MOLT-4 leukemia
  TGI: 63.6 µM
OVCAR-3 ovarian
  TGI: 23.7 µM
M19-MEL melanoma
  TGI: 26.7 µM
HCC-2998 colon
  TGI: 38.1 µM
786-0 renal
  TGI: 29.5 µM
LOX IMVI melanoma
  TGI: 20.6 µM
SF-539 CNS
  TGI: 32.9 µM
SN12C renal
  TGI: 35.1 µM
K-562 leukemia
  TGI: 40.3 µM
HL-60(TB) leukemia
  TGI: 36.4 µM
MALME-3M melanoma
  TGI: > 100 µM
DMS 114 small cell lung
  TGI: 36.6 µM
DMS 273 small cell lung
  TGI: 41.7 µM
CCRF-CEM leukemia
  TGI: 39.1 µM
XF 498 CNS
  TGI: 70.7 µM
TK-10 renal
  TGI: 76.1 µM
SNB-78 CNS
  TGI: > 100 µM
SR leukemia
  TGI: 24.9 µM
SK-OV-3 ovarian
  TGI: 31 µM
ACHN renal
  TGI: 44.2 µM
HCT-116 colon
  TGI: 3.56 µM
SF-295 CNS
  TGI: 45.3 µM
A498 renal
  TGI: 36.1 µM
SW-620 colon
  TGI: 29.6 µM
NCI-H23 lung
  TGI: 34.2 µM
KM12 colon
  TGI: 25.3 µM
OVCAR-4 ovarian
  TGI: 43.9 µM
SF-268 CNS
  TGI: 38.9 µM
HOP-18 NSCLC
  TGI: > 100 µM
UACC-62 melanoma
  TGI: 28.8 µM
HOP-92 NSCLC
  TGI: 89.7 µM
U251 CNS
  TGI: 28.4 µM
EKVX NSCLC
  TGI: 48.6 µM
HT29 colon
  TGI: 26.3 µM

## CC(CC[C@@H](C)C1CCC2[C@@H]3CC(O)C4CC(O)[C@@H](O)C[C@]4(C)C3CC[C@@]21C)C(C)(C)C (stereo not given in full)
SNB-75 CNS
  TGI: > 100 µM
SK-MEL-5 melanoma
  TGI: > 100 µM
COLO 205 colon
  TGI: > 100 µM
SNB-19 CNS
  TGI: > 100 µM
LXFL 529 NSCLC
  TGI: > 100 µM
M14 melanoma
  TGI: > 100 µM
HOP-62 NSCLC
  TGI: > 100 µM
A549 NSCLC
  TGI: > 100 µM
NCI-H460 lung
  TGI: > 100 µM
OVCAR-8 ovarian
  TGI: > 100 µM
RXF 393 renal
  TGI: > 100 µM
UACC-257 melanoma
  TGI: > 100 µM
UO-31 renal
  TGI: > 100 µM
SK-MEL-28 melanoma
  TGI: > 100 µM
NCI-H226 lung
  TGI: > 100 µM
OVCAR-5 ovarian
  TGI: > 100 µM
CAKI-1 renal
  TGI: > 100 µM
KM20L2 colon
  TGI: > 100 µM
HCT-15 colon
  TGI: > 100 µM
IGROV1 ovarian
  TGI: > 100 µM
DLD-1 colon
  TGI: > 100 µM
RPMI-8226 leukemia
  TGI: > 100 µM
MOLT-4 leukemia
  TGI: > 100 µM
OVCAR-3 ovarian
  TGI: > 100 µM
M19-MEL melanoma
  TGI: > 100 µM
HCC-2998 colon
  TGI: > 100 µM
786-0 renal
  TGI: > 100 µM
LOX IMVI melanoma
  TGI: > 100 µM
SF-539 CNS
  TGI: > 100 µM
SN12C renal
  TGI: > 100 µM
SK-MEL-2 melanoma
  TGI: > 100 µM
K-562 leukemia
  TGI: > 100 µM
HL-60(TB) leukemia
  TGI: > 100 µM
MALME-3M melanoma
  TGI: > 100 µM
DMS 114 small cell lung
  TGI: > 100 µM
DMS 273 small cell lung
  TGI: > 100 µM
CCRF-CEM leukemia
  TGI: > 100 µM
XF 498 CNS
  TGI: > 100 µM
TK-10 renal
  TGI: > 100 µM
SNB-78 CNS
  TGI: > 100 µM
SR leukemia
  TGI: > 100 µM
SK-OV-3 ovarian
  TGI: > 100 µM
ACHN renal
  TGI: > 100 µM
HCT-116 colon
  TGI: > 100 µM
SF-295 CNS
  TGI: > 100 µM
A498 renal
  TGI: > 100 µM
SW-620 colon
  TGI: > 100 µM
NCI-H23 lung
  TGI: > 100 µM
KM12 colon
  TGI: > 100 µM
OVCAR-4 ovarian
  TGI: > 100 µM
SF-268 CNS
  TGI: > 100 µM
HOP-18 NSCLC
  TGI: > 100 µM
UACC-62 melanoma
  TGI: > 100 µM
HOP-92 NSCLC
  TGI: > 100 µM
U251 CNS
  TGI: > 100 µM
EKVX NSCLC
  TGI: > 100 µM
HT29 colon
  TGI: > 100 µM

## O=C1C2C=CC(n3[nH]c(=O)n(Cc4ccccc4)c3=O)CC2C(=O)N1c1cccc(Cl)c1 (stereo not given)
SNB-75 CNS
  TGI: > 100 µM
SK-MEL-5 melanoma
  TGI: > 100 µM
COLO 205 colon
  TGI: > 100 µM
SNB-19 CNS
  TGI: > 100 µM
LXFL 529 NSCLC
  TGI: > 100 µM
M14 melanoma
  TGI: > 100 µM
HOP-62 NSCLC
  TGI: > 100 µM
A549 NSCLC
  TGI: > 100 µM
NCI-H460 lung
  TGI: > 100 µM
OVCAR-8 ovarian
  TGI: > 100 µM
NCI-H522 lung
  TGI: > 100 µM
RXF 393 renal
  TGI: > 100 µM
UACC-257 melanoma
  TGI: > 100 µM
UO-31 renal
  TGI: > 100 µM
SK-MEL-28 melanoma
  TGI: > 100 µM
NCI-H226 lung
  TGI: > 100 µM
OVCAR-5 ovarian
  TGI: > 100 µM
CAKI-1 renal
  TGI: > 100 µM
KM20L2 colon
  TGI: > 100 µM
HCT-15 colon
  TGI: > 100 µM
IGROV1 ovarian
  TGI: > 100 µM
DLD-1 colon
  TGI: > 100 µM
OVCAR-3 ovarian
  TGI: > 100 µM
M19-MEL melanoma
  TGI: > 100 µM
HCC-2998 colon
  TGI: > 100 µM
786-0 renal
  TGI: > 100 µM
LOX IMVI melanoma
  TGI: > 100 µM
SF-539 CNS
  TGI: > 100 µM
SN12C renal
  TGI: > 100 µM
SK-MEL-2 melanoma
  TGI: > 100 µM
K-562 leukemia
  TGI: > 100 µM
HL-60(TB) leukemia
  TGI: > 100 µM
MALME-3M melanoma
  TGI: > 100 µM
DMS 114 small cell lung
  TGI: > 100 µM
DMS 273 small cell lung
  TGI: > 100 µM
CCRF-CEM leukemia
  TGI: > 100 µM
XF 498 CNS
  TGI: > 100 µM
TK-10 renal
  TGI: > 100 µM
SNB-78 CNS
  TGI: > 100 µM
SR leukemia
  TGI: > 100 µM
SK-OV-3 ovarian
  TGI: > 100 µM
ACHN renal
  TGI: > 100 µM
HCT-116 colon
  TGI: > 100 µM
SF-295 CNS
  TGI: > 100 µM
A498 renal
  TGI: > 100 µM
SW-620 colon
  TGI: > 100 µM
NCI-H23 lung
  TGI: > 100 µM
KM12 colon
  TGI: > 100 µM
OVCAR-4 ovarian
  TGI: > 100 µM
SF-268 CNS
  TGI: > 100 µM
HOP-18 NSCLC
  TGI: > 100 µM
UACC-62 melanoma
  TGI: > 100 µM
HOP-92 NSCLC
  TGI: > 100 µM
U251 CNS
  TGI: > 100 µM
EKVX NSCLC
  TGI: > 100 µM
HT29 colon
  TGI: > 100 µM
